Laboratory results published in paper PMC7617456, “Cryptosporidium lysyl-tRNA synthetase inhibitors define the interplay between solubility and permeability required to achieve efficacy” (Science translational medicine, 2024).

Tests used:
wild type parasites (WT) = assay: Transgenic C. parvum NanoLuciferase drug sensitivity assay, WT; type: cell-based; conditions: Cryptosporidium parvum, HCT-8, 48 h, read-out: EC50, WT
Rat pharmacokinetics = type: in vivo; conditions: for half-life / Vd / AUC / Cmax / Tmax / bioavailability: male, Hans Wistar, whole blood; for half-life / Vd: 3 mg/kg, rat, IV; for half-life: read-out: T½ (converted); for Vd: read-out: Vdss; for bioavailability: read-out: F (oral bioavailability); for CLB: rat IV, clearance in blood
Protocol: Rat pharmacokinetics (Dundee)
As for mice except using male Hans Wistar rats (IV dose volume 1 mL/kg; PO dose volume: […]
Pharmacokinetic parameters were
derived from the blood concentration-time curve using WinNonLin Professional Software v
6.3 (Pharsight Corporation). […]

[1] = tested on: transgenic C. parvum that express NanoLuciferase; assay: IFN-Gamma KO mouse acute efficacy model; type: in vivo; conditions: DDD489, DDD508 50 mg/kg BID; DDD706 20 mg/kg QD; oral 7 days from day 6 PI
Protocol: First, compounds were tested in the acute cryptosporidiosis mouse model, IFN-Gamma KO.([16]) In this model, infection peaks at approximately 10-12 days PI, and resolves within a month. Mice were infected with a strain of transgenic C. parvum that expresses NanoLuciferase (NLuc).([12]) Mice were treated orally for 7 days starting on day 6 PI (Fig. 4A) and a NanoLuciferase assay was used to determine parasite shedding in feces (RLUs/g). Control mice received either vehicle (Fig. 4B, white) or positive control, DDD706 (Fig. 4B, black; NLuc parasites are genetically engineered to be resistant to paromomycin, so DDD706 serves as the positive control) at 20 mg/kg QD; DDD489 and DDD508 were tested at 50 mg/kg BID.
Male IFN-Gamma knockout mice (B6.129S7-Ifng^tmlTS/J, JAX 002287; purchased from Jackson Labs and bred at the University of Dundee) aged 30 weeks old were used, (n = 5 mice per experimental group). Mice were infected by oral gavage (100 oocysts of Δtk::mNeon-Neo^R as described previously([12])). Compounds were prepared in HMPC without DMSO and administered by oral gavage at 50 mg/kg starting day 6 PI. Early lead compound DDD706 served as the positive control (administered at 20 mg/kg QD). Fecal samples were pooled from all mice in the cage on days indicated. Oocyst shedding in feces was determined by NanoLuciferase assay (20 mg of fecal material was homogenized in 1 ml of lysis buffer and assayed for NLuc activity as previously described).([12])

[2] = Hepatocyte intrinsic clearance, human; type: in vitro ADME; conditions: human hepatocytes
wild type C. parvum = assay: Neonatal calf efficacy model; type: in vivo; conditions: for calves receiving treatment that shed Cryptosporidium after day 16 PI: 15 mg/kg BID 7 days, n=7; for Cryptosporidium shedding: 15 mg/kg BID oral 7 days from day 1 PI, to day 16 PI; for fecal scores: 15 mg/kg BID, 0 = normal, 3 = severe, treatment period
Protocol: Calves were enrolled at birth and challenged with wild type C. parvum oocysts (Fig. 5A). DDD489 and DDD508 were administered orally at 15 mg/kg BID for 7 days, beginning on day 1 PI. Blood was sampled and mean free plasma concentration was determined (Fig. S10). Fecal samples were collected from individual animals and parasite shedding was quantified (oocyst/g) by microscopy and quantitative PCR. Fecal samples were collected daily until day 21 PI to monitor for parasite recrudescence. To determine the impact of our late lead compounds on reducing symptoms of cryptosporidiosis, several clinical observations were scored throughout the study.
Calves (Holstein Friesian, British Blue Cross, Limousin Cross, or Aberdeen Angus Cross) were born at commercial dairy farms, provided a colostrum feed, and transported to Moredun Scientific. Calves were enrolled in the study if >30 kg at birth and in good health. Enrolment was staggered due to timing of births.
Calves were assigned to control or treatment groups (7 calves per group) and housed in separate barns (within each barn calves were housed in adjacent, individual pens). Male calves were used in the DDD489 study, and both male and female calves were used in the DDD508 study (control group: 3 females/4 males; treatment group: 2 females/5 males). Calves were challenged on day 1 post birth with 5x10^5 C. parvum oocysts by oral gavage (Sterling Labs for DDD489; Waterborne Inc. for DDD508).
Starting day 1 PI, vehicle (in 0.5% HPMC, 0.4% Tween 80, 0.5% Benzyl alcohol in sterile water) or treatment (DDD489 or DDD508) were administered by oral gavage twice daily immediately prior to milk feeds, and at least 8 hours apart (± 30 minutes). Vehicle was delivered at a set volume (22.6 ml per occasion) and test compound at 15 mg/kg (maximum volume of 20 ml per occasion; prepared in vehicle). Blood samples were collected from all animals prior to morning treatment on Day 1, then 5 (± 2) minutes, 15 (± 2) minutes, 30 (± 5) minutes, 1, 2, 4, 8 and 24 hours (± 10 minutes) post first daily dose. This sample schedule was repeated on Day 7 for the same animals. Blood samples were processed to plasma. Weight was measured and clinical observations recorded as indicated. Fecal samples were collected daily throughout the study. […]
was limited to staff involved in the study, and separate PPE was dedicated for use with each […]
Specified staff were involved in preparing the vehicle and treatment material and were not involved in its administration. These staff were not involved in taking and recording clinical observations or collecting samples. Staff that administered the vehicle and treatment materials were blinded to the material identity. If staff involved in administration of materials or sample collection became “unblinded” at any point in the study, they were immediately removed from […]
Quantification of Cryptosporidium shedding from calf samples (Moredun Scientific and […]
Oocyst per gram from calf fecal samples was determined by microscopy (performed at MRI) and by qPCR (Pawlowic Lab at the University of Dundee). For microscopy 0.1 g of fecal material was resuspended in 10 ml PBS. 100 microliters of diluted fecal material was incubated with 15 microliters Cryptosporidium FITC Stain (CellLabs) and incubated at 37 °C for 15 minutes. Samples were then mounted on a grided slide and counted using a fluorescent microscope. For qPCR, fecal samples were continuously stored in 4°C and transported to the University of Dundee. DNA was extracted from 100mg of fecal material (unless otherwise noted) using the Zymo Quick-DNA Fecal/Soil Microbe Miniprep Kit (Cambridge Bioscience, catalog #D6010). Once material was suspended in Bashing Bead Buffer we modified the protocol slightly by adding 5 freeze/thaw cycles.(32) DNA was stored in 4°C to await qPCR.
For the standard curve, known amounts of wild-type oocysts were added to 100 mg of uninfected murine fecal sample and DNA was extracted using the protocol detailed above. We […]

[3] = Plasma protein binding, rat; type: in vitro ADME; conditions: read-out: PPB (r) (converted)
[4] = Plasma protein binding, human; type: in vitro ADME; conditions: read-out: PPB (h) (converted)
[5] = rat IV (DDD489 2.8, DDD508 3.47 mg/kg)

| SMILES | EC50 (wild type parasites (WT)) [nM] | half-life (Rat pharmacokinetics) [h] | Vd (Rat pharmacokinetics) [L/kg] | AUC (Rat pharmacokinetics; [5]) [ng·h/mL] | AUC (Rat pharmacokinetics; rat PO 10 mg/kg) [ng·h/mL] | Cmax (Rat pharmacokinetics; rat PO 10 mg/kg) [ng/mL] | Tmax (Rat pharmacokinetics; rat PO 10 mg/kg) [h] | bioavailability (Rat pharmacokinetics; rat PO 10 mg/kg) [%] | CLB (Rat pharmacokinetics) [mL/min/kg] | parasite shedding during treatment period [1] | recrudescence [1] | Heps CLi (h) [2] [mL/min/g] | calves receiving treatment that shed Cryptosporidium after day 16 PI (wild type C. parvum) | Cryptosporidium shedding (wild type C. parvum) | fecal scores (wild type C. parvum) | fraction unbound [3] | fraction unbound [4] |
| --- | --- | --- | --- | --- | --- | --- | --- | --- | --- | --- | --- | --- | --- | --- | --- | --- | --- |
| Nc1nc2c(c(C(F)(F)F)n1)C(=O)N(CC1CCCC(C(F)(F)F)C1)C2 (stereo not shown) [DDD489] | 85 | 1.2 | 3.2 | 1200 | 137 | 30 | 2 | 3.2 | 39 | reduced parasite shedding below the LOQ | able to prevent parasite recrudescence | 1.1 | 3/7 | did not shed any detectable amount of Cryptosporidium | normal to mild range | 0.42 | 0.23 |
| O=C(NCC1(O)CCCCC1)c1cc(=O)c2cc(O)ccc2o1 [DDD508] | 270 | 0.6 | 2.1 | 900 | 367 | 100 | 1 | 14 | 64 | reduced parasite shedding below the limit of quantitation (LOQ) | unable to prevent recrudescence | < 0.5 | 4/7 | did not shed any detectable amount of Cryptosporidium | normal to mild range | 0.47 | 0.42 |
